The values that follow come from patent publication US20250154099A1, “PREPARATION METHOD OF 2-PHENYLINDOLE DERIVATIVES AND APPLICATION THEREOF” (Shihezi University, priority 2022, published 2025).

≈ marks a conversion by molar mass, not a printed value. Read-outs that look alike come from different tables or passages of the source.

Type in all cases: cell-based
Test [1] deals with Candida albicans BNCC186382. Put plainly: MIC by microdilution method, sensitive Candida albicans. To be noted: for MIC: Candida albicans, read-out: MIC Candida albicans. From the text: (§1) Used bacteria: including drug-resistant bacteria and sensitive bacteria: the used sensitive strains include Cryptococcus neoformans BNCC225501, Candida albicans BNCC186382, Aspergillus fumigatus Fresenius BNCC338385, Escherichia coli BNCC336902, Staphylococcus aureus BNCC186335 and Pseudomonas aeruginosa Migula BNCC337940, and the used drug-resistant Candida albicans is clinically isolated azole multi-drug resistant Candida albicans (CA10) donated by Qianfoshan Hospital in Shandong Province. The strains are stored in normal saline containing 20% glycerol at −80° C. for a long time. Before operation, the strains are lined and transferred to a YPD solid plate, and subjected to static culture at 30° C. for 24 h; single colonies are selected and transferred to a YPD liquid medium, and cultured at 200 rpm at 30° C. overnight; and the overnight cultured bacterial solution is inoculated into a new YPD liquid medium at a ratio of about 1:100, and subjected to shaking culture at 200 rpm at 30° C. for 4 h so that Candida albicans is in a logarithmic phase.
(§2) Culture medium: the culture medium used by the microdilution method is RPMI-1640 culture medium (Gibco).
(§3) 1.2 Operation and results of detection of minimum inhibitory concentration (MIC) of the compounds and the azole drugs by the microdilution method: the MIC of the synthesized compound and the azole drug fluconazole for the standard strains is detected by the microdilution method according to fungal sensitivity detection method (M27-A3) established by the Clinical and Laboratory Standards Institute (CLSI). Specific steps are as follows: the prepared strain concentration is adjusted to 0.5-2.5×10^3 CFU/mL by using RPMI-1640 medium. 200 μL of bacterial solution containing the highest concentration of the drug to be detected is added into the first well of a 96-well plate, and 100 μL of blank bacterial solution without drug is added into each of the other wells; the bacterial solution is diluted to a series of concentration gradients by a double gradient dilution method; the well plate is subjected to static culture at constant temperature of 35° C. for 24 h; after the absorbance (OD) of each concentration gradient at 570 nm is detected by a microplate reader and the absorbance of a blank medium is subtracted, the growth rate=dosing hole value/control hole value ×100%, the inhibition rate=1−growth rate, and the minimum concentration with the inhibition rate greater than 80% is the minimum inhibitory concentration (MIC) value.

The test system of test [2] is Cryptococcus neoformans BNCC225501. Put plainly: MIC by microdilution method, sensitive Cryptococcus neoformans. To be noted: for MIC: Cryptococcus neoformans, read-out: MIC Cryptococcus neoformans.
From the text: as §1, §2, §3

In test [3] the test system is Aspergillus fumigatus Fresenius BNCC338385. As to the kind of experiment: MIC by microdilution method, sensitive Aspergillus fumigatus Fresenius. To be noted: 24 h; for MIC: Aspergillus fumigatus, read-out: MIC Aspergillus fumigatus Fresenius.
From the text: as §1, §2, §3

The test system of test [4] is Staphylococcus aureus BNCC186335. As to the kind of experiment: MIC by microdilution method, sensitive Staphylococcus aureus. To be noted: read-out: MIC Staphylococcus aureus.
From the text: as §1, §2, §3

For test [5], the system named is Escherichia coli BNCC336902. Put plainly: MIC by microdilution method, sensitive Escherichia coli. To be noted: read-out: MIC Escherichia coli.
From the text: as §1, §2, §3

The subject of test [6] is Pseudomonas aeruginosa Migula BNCC337940. As to the kind of experiment: MIC by microdilution method, sensitive Pseudomonas aeruginosa Migula. To be noted: 24 h, read-out: MIC Pseudomonas aeruginosa Migula.
From the text: as §1, §2, §3

Test [7] relates to Drug-resistant Candida albicans CA10. Put plainly: MIC by microdilution method, drug-resistant Candida albicans CA10. To be noted: clinically isolated azole multi-drug resistant strain CA10; 24 h.
From the text: as §1, §2, §3

Where [8] appears, read: sensitive strain, 35° C., 24 h, minimum concentration with inhibition rate greater than 80%.
[9] abbreviates: sensitive strain, 35° C., minimum concentration with inhibition rate greater than 80%.
[10] abbreviates: BNCC186335, sensitive strain, 35° C., 24 h, minimum concentration with inhibition rate greater than 80%.
[11] abbreviates: BNCC336902, sensitive strain, 35° C., 24 h, minimum concentration with inhibition rate greater than 80%.

Consider `C[C@@H]1[C@H](O)[C@@H](C)/C=C/C=C/C=C/C=C/C=C/C=C/C=C/[C@H](O[C@@H]2O[C@H](C)[C@@H](O)[C@H](N)[C@@H]2O)C[C@@H]2O[C@](O)(C[C@@H](O)C[C@@H](O)[C@H](O)CC[C@@H](O)C[C@@H](O)CC(=O)O[C@H]1C)C[C@H](O)[C@H]2C(=O)O` [Amphotericin B, amphotericin B, reference compound], for which the “MIC Candida albicans” value in test [1] (setting [8]) was 2 µg/mL (≈ 2.16 µM). Moreover, the “MIC Cryptococcus neoformans” value in test [2] (setting [8]) came to 64 µg/mL (≈ 69.3 µM). The “MIC Aspergillus fumigatus Fresenius” value in test [3] (setting [9]) amounted to 16 µg/mL (≈ 17.3 µM).
Consider `COc1cccc(-c2cc3ccccc3[nH]2)c1` [Compound 1], for which the MIC in test [1] (BNCC186382, 24 h) amounted to 16 µg/mL (≈ 71.7 µM); in test [2] (BNCC225501, 24 h) it was 4 µg/mL (≈ 17.9 µM); in test [3], 8 µg/mL (≈ 35.8 µM); in test [4] (BNCC186335, 24 h) it was 64 µg/mL (≈ 287 µM); in test [5] (BNCC336902, 24 h), 4 µg/mL (≈ 17.9 µM); in test [6], 8 µg/mL (≈ 35.8 µM). Besides, in test [7], the MIC80 Drug-resistant Candida albicans CA10 was > 256 µg/mL.
As to `COc1ccc2cc(-c3ccccc3)[nH]c2c1` [Compound 3], the MIC in test [1] (BNCC186382, sensitive strain, 35° C., 24 h, minimum concentration with inhibition rate greater than 80%) was 256 µg/mL (≈ 1150 µM); in test [2] (BNCC225501, sensitive strain, 35° C., 24 h, minimum concentration with inhibition rate greater than 80%) it was 256 µg/mL (≈ 1150 µM); in test [3] (setting [9]), 256 µg/mL (≈ 1150 µM); in test [4] (setting [10]) it was 256 µg/mL (≈ 1150 µM); in test [5] (setting [11]), 256 µg/mL (≈ 1150 µM); in test [6] (setting [9]), 64 µg/mL (≈ 287 µM). Moreover, the MIC80 Drug-resistant Candida albicans CA10 in test [7] is > 256 µg/mL.
Turning to `c1ccc(-c2cc3ccccc3[nH]2)cc1` [Compound 6], the MIC in test [1] (BNCC186382, 24 h) is > 256 µg/mL; in test [2] (BNCC225501, 24 h), 256 µg/mL (≈ 1320 µM); in test [3], > 256 µg/mL; in test [4] (BNCC186335, 24 h) it was > 256 µg/mL; in test [5] (BNCC336902, 24 h) it was > 256 µg/mL; in test [6] it was > 256 µg/mL. In addition, in test [7], the MIC80 Drug-resistant Candida albicans CA10 was > 256 µg/mL.
With `Cc1cccc(-c2cc3ccccc3[nH]2)c1` [Compound 7], the MIC in test [1] (BNCC186382, 24 h) turned out to be 256 µg/mL (≈ 1240 µM); in test [2] (BNCC225501, 24 h), 256 µg/mL (≈ 1240 µM); in test [3], 256 µg/mL (≈ 1240 µM); in test [4] (BNCC186335, 24 h), 8 µg/mL (≈ 38.6 µM); in test [5] (BNCC336902, 24 h), 8 µg/mL (≈ 38.6 µM); in test [6] it was 256 µg/mL (≈ 1240 µM). Besides, in test [7], the MIC80 Drug-resistant Candida albicans CA10 was > 256 µg/mL.
Turning to `Cc1ccc(-c2cc3ccccc3[nH]2)cc1` [Compound 8], the MIC in test [1] (BNCC186382, 24 h) was 256 µg/mL (≈ 1240 µM); in test [2] (BNCC225501, 24 h), 256 µg/mL (≈ 1240 µM); in test [3], 256 µg/mL (≈ 1240 µM); in test [4] (BNCC186335, 24 h), 256 µg/mL (≈ 1240 µM); in test [5] (BNCC336902, 24 h), 8 µg/mL (≈ 38.6 µM); in test [6], 256 µg/mL (≈ 1240 µM). Further, in test [7], the MIC80 Drug-resistant Candida albicans CA10 is > 256 µg/mL.
With `Fc1ccc(-c2cc3ccccc3[nH]2)cc1` [Compound 10], the MIC is > 256 µg/mL in test [1] (BNCC186382, 24 h); > 256 µg/mL in test [2] (BNCC225501, 24 h); > 256 µg/mL in test [3]; > 256 µg/mL in test [4] (BNCC186335, 24 h); > 256 µg/mL in test [5] (BNCC336902, 24 h); > 256 µg/mL in test [6]. Also, the MIC80 Drug-resistant Candida albicans CA10 in test [7] was > 256 µg/mL.
For `Clc1ccc(-c2cc3ccccc3[nH]2)cc1` [Compound 11], the MIC in test [1] (BNCC186382, 24 h) was > 256 µg/mL; in test [2] (BNCC225501, 24 h), > 256 µg/mL; in test [3] it was > 256 µg/mL; in test [4] (BNCC186335, 24 h), > 256 µg/mL; in test [5] (BNCC336902, 24 h) it was > 256 µg/mL; in test [6], > 256 µg/mL. The MIC80 Drug-resistant Candida albicans CA10 in test [7] is > 256 µg/mL.
For `O=[N+]([O-])c1cccc(-c2cc3ccccc3[nH]2)c1` [Compound 12], the MIC was determined as 4 µg/mL (≈ 16.8 µM) in test [1] (BNCC186382, 24 h); 8 µg/mL (≈ 33.6 µM) in test [2] (BNCC225501, 24 h); 4 µg/mL (≈ 16.8 µM) in test [3]; 256 µg/mL (≈ 1070 µM) in test [4] (BNCC186335, 24 h); 8 µg/mL (≈ 33.6 µM) in test [5] (BNCC336902, 24 h); 2 µg/mL (≈ 8.39 µM) in test [6]. In addition, in test [7], the MIC80 Drug-resistant Candida albicans CA10 was > 256 µg/mL.
On to `FC(F)(F)c1ccc(-c2cc3ccccc3[nH]2)cc1` [Compound 13], for which the MIC in test [1] (BNCC186382, 24 h) was 256 µg/mL (≈ 980 µM); in test [2] (BNCC225501, 24 h), 256 µg/mL (≈ 980 µM); in test [3], 256 µg/mL (≈ 980 µM); in test [4] (BNCC186335, 24 h), 256 µg/mL (≈ 980 µM); in test [5] (BNCC336902, 24 h), 256 µg/mL (≈ 980 µM); in test [6], 16 µg/mL (≈ 61.2 µM). For the same compound, the MIC80 Drug-resistant Candida albicans CA10 in test [7] is > 256 µg/mL.
With `[H]/N=C(/N)N[C@H]1[C@H](O)[C@@H](O)[C@H](O[C@@H]2O[C@@H](C)[C@](O)(C=O)[C@H]2O[C@@H]2O[C@@H](CO)[C@H](O)[C@@H](O)[C@@H]2NC)[C@@H](N/C(N)=N\[H])[C@@H]1O` [Streptomycin, reference compound], the MIC in test [4] (setting [10]), in test [5] (setting [11]) and in test [6] (setting [9]) was 2 µg/mL (≈ 3.44 µM) in each case.
